Measurements: patent publication US20240277658A1, “NLRP3 ACTIVATORS FOR USE IN THE TREATMENT OF INFECTIOUS DISEASES OR CANCER BY ACTIVATING NLRP3 INFLAMMASOME” (ALBERT-LUDWIGS-UNIVERSITÄT FREIBURG, priority 2020, published 2024)
“And” between values parts separate entries of the source, which are not always exact repeats. Identical values can stand only once. Like-named read-outs stand apart in the source and are kept apart here.

What was measured:
NLRP3 = experiment: Inflammasome stimulation (IL-1β, LDH release) in BMDCs from NLRP3 knockout or ASC knockout mice; assay type: cell-based, mouse; conditions: IL-1β and LDH release
Experimental: (§1) For canonical inflammasome activation BMDCs after 7-9 days of differentiation were harvested and counted with a Neubauer Chamber (Hecht Assistant) and the concentration was set to 1 Mio cells ml^−1. 100 μl cell suspension per well were seeded in 96-well plates. The cells were primed with 50 ng ml^−1 E. coli K12 ultra-pure LPS for 3 hours and subsequently treated with canonical inflammasome activators or experimental compounds for 3 hours if not indicated differently (incubation time FIG. 4D, 5, 7, 8, 11, 13-18: 3 h, FIG. 12: 4 h). Concentrations of the stimuli were as follows if not indicated differently: 5 μM nigericin, 100 μM imiquimod (also known as R837), 100 μM CL097, 100 μM R848, […] poly(dA:dT), 300 μg ml^−1 MSU. If an inhibitor was used before stimuli treatment, the inhibitor was added after 2.5 hours of priming and it was incubated for 30 minutes before inflammasome activation. Inhibitors were used as follows: 3 μM MCC950, 45 mM KCl, 30 μM ebselen (2-Phenyl-1,2-benzoselenazol-3-one), 5 μM cytochalasin D (see FIGS. 8, 11, 12 and 17).
(§2) All inflammasome stimulations were performed in three technical replicates for each condition. Lytic cell death was determined via LDH release (see FIGS. 8, 13-16 and 18), cytokines quantified in cell-free supernatants via ELISA (see FIGS. 4D, 7-9, 11-19) and cell lysates and supernatants analyzed via immunoblotting (see FIGS. 5A and 5B) as previously described in detail (Gross, Olaf, 2012 “Measuring the inflammasome”, Methods in molecular biology, Clifton, N.J., 844, pp. 199-222. Schneider, Katharina S.; Thomas, Christina J.; Groß, Olaf, 2013, “Inflammasome activation and inhibition in primary murine bone marrow-derived cells, and assays for IL-1α, IL-1β, and caspase-1”, Methods in molecular biology, Clifton, N.J., 1040, pp. 117-135).

NLRP3 inflammasome [1] = biological target: T1, NLRP3 inflammasome (Mus musculus, UniProt Q8R4B8); experiment: IL-1β release from LPS-primed BMDCs (ELISA) as readout of NLRP3 inflammasome activation; assay type: cell-based
T1 construct: endogenous in cells; host or cells: primary mouse bone marrow-derived dendritic cells (BMDCs), LPS-primed
T1 sequence (Q8R4B8 whole entry): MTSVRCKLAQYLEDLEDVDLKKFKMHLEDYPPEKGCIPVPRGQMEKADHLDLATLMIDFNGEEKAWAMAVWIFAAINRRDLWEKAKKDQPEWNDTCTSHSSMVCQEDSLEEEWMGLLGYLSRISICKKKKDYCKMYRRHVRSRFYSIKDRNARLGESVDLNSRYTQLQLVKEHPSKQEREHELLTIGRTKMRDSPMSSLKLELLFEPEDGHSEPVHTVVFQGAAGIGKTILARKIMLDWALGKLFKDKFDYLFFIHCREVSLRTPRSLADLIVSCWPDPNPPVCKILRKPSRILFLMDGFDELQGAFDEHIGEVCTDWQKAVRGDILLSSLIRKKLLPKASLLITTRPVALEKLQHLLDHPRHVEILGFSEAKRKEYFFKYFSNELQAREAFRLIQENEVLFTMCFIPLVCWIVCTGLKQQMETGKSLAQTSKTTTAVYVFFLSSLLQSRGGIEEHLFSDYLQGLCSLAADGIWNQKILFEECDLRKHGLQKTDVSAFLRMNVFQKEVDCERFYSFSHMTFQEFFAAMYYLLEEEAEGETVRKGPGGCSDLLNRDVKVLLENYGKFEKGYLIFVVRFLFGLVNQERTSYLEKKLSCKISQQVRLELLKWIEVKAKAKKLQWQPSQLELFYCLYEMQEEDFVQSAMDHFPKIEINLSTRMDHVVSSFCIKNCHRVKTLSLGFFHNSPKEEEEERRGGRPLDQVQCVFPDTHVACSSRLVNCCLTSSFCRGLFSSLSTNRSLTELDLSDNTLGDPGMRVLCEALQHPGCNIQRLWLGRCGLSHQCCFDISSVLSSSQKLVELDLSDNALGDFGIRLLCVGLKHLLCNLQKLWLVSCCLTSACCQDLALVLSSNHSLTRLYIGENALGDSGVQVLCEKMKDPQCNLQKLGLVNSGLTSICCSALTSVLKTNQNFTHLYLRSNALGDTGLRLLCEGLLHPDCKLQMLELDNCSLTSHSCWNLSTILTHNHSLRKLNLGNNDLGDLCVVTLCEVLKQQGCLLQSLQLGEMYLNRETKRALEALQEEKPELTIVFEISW
Summary of the method: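 NLRP3 inflammasome activation was read out as IL-1β released into the supernatant, measured by ELISA. Murine BMDCs were primed with LPS (50 ng ml^−1, 3 hours), then incubated with compounds for 3 hours, with each condition run in three technical replicates. Nigericin at 5 μM acted as the positive control activator, and IL-1β release was also expressed as a percentage of that control.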

BMDCs = experiment: LDH release (lytic cell death, pyroptosis) from LPS-primed BMDCs; assay type: cell-based, mouse; conditions: for Average (% positive control): LDH release; for cytotoxicity at 25 µM / cytotoxicity at 50 µM / cytotoxicity at 75 µM / cytotoxicity at 100 µM / cytotoxicity at 5 µM: Mus musculus, BMDC
Summary of the method: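 LDH released into medium, detected colorimetrically, served as the pyroptosis read-out in triplicate. LPS-primed (50 ng ml^−1, 3 h) murine bone marrow-derived dendritic cells received test compounds, typically 50 μM, or nigericin (5 μM), R837 or CL097 (100 μM) for 3 hours.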

NLRP3 inflammasome [2] = biological target: T1, NLRP3 inflammasome; experiment: Inflammasome stimulation of BMDCs after pre-incubation with inhibitors (MCC950, KCl, ebselen, cytochalasin D); assay type: cell-based; conditions: for dependence of NLRP3 inflammasome activation on potassium efflux from the cell: 50 mM extracellular KCl, FIGS. 11 and 17
Experimental: as §1, with “Inhibitors were used as follows: 3 μM MCC950, 45 mM KCl, 30 μM ebselen (2-Phenyl-1,2-benzoselenazol-3-one), 5 μM cytochalasin D (see FIGS. 8, 11, 12 and 17).” left out
as §2

SMILES: S=C(Nc1ccccc1)Nc1ccc2ncccc2c1 [AH4, 1-phenyl-3-(quinolin-6-yl) thiourea]
- characteristics of inflammasome activation in cells isolated from NLRP3 knockout mice (NLRP3): do not occur
- Average IL-1β (NLRP3 inflammasome [1]; 25 μM, AH series table): 2.151 ng/mL
- IL-1β (NLRP3 inflammasome [1]; 25 μM, individual replicate values, AH series table): 2.340 ng/mL and 2.250 ng/mL and 1.863 ng/mL
- Average IL-1β (NLRP3 inflammasome [1]; 50 μM, AH series table): 10.000 ng/mL
- IL-1β (NLRP3 inflammasome [1]; 50 μM, individual replicate values, AH series table): 10.000 ng/mL
- Average IL-1β (NLRP3 inflammasome [1]; 75 μM, AH series table): 9.996 ng/mL
- IL-1β (NLRP3 inflammasome [1]; 75 μM, individual replicate values, AH series table): 9.988 ng/ml and 10.000 ng/ml (2×)
- Average (% positive control) (NLRP3 inflammasome [1]; IL-1β, 25 μM, positive control EN22 10 μM): 21.507 % positive control
- Average (% positive control) (NLRP3 inflammasome [1]; IL-1β, 50 μM, positive control EN22 10 μM): 100.000 % positive control
- Average (% positive control) (NLRP3 inflammasome [1]; IL-1β, 75 μM, positive control EN22 10 μM): 99.960 % positive control
- Average (% positive control) (BMDCs; 25 μM, positive control EN22 10 μM): 24.359 % positive control
- Average (% positive control) (BMDCs; 50 μM, positive control EN22 10 μM): 73.142 % positive control
- Average (% positive control) (BMDCs; 75 μM, positive control EN22 10 μM): 89.204 % positive control
- cytotoxicity at 25 µM (BMDCs; 25 μM, AH series table, read-out: Average LDH release (% of max.)): 18.7%
- cytotoxicity at 25 µM (BMDCs; 25 μM, individual replicate values, AH series table, read-out: LDH release (% of max.)): 20%
- cytotoxicity at 50 µM (BMDCs; 50 μM, AH series table, read-out: Average LDH release (% of max.)): 56.2%
- cytotoxicity at 50 µM (BMDCs; 50 μM, individual replicate values, AH series table, read-out: LDH release (% of max.)): 57.6%
- cytotoxicity at 75 µM (BMDCs; 75 μM, individual replicate values, read-out: LDH release (% of max.)): 67.9%
- cytotoxicity at 75 µM (BMDCs; 75 μM, read-out: Average LDH release (% of max.)): 68.5%

SMILES: O=C(Nc1ccc2ncccc2c1)Nc1ccc2ncccc2c1 [EN-A, 1,3-di(quinolin-6-yl)urea]
- dependence of NLRP3 inflammasome activation on potassium efflux from the cell (NLRP3 inflammasome [2]): independently of potassium efflux
- characteristics of inflammasome activation in cells isolated from NLRP3 knockout mice (NLRP3): do not occur
- Average IL-1β (NLRP3 inflammasome [1]; section 1.2, 25 μM): 4.696 ng/mL
- Average IL-1β (NLRP3 inflammasome [1]; section 1.2, 50 μM): 5.026 ng/mL
- Average IL-1β (NLRP3 inflammasome [1]; section 1.2, 100 μM): 5.084 ng/mL
- Average (% positive control) (NLRP3 inflammasome [1]; section 1.2, IL-1β release, 25 μM, positive control EN22 25 μM): 93.430 % positive control
- Average (% positive control) (NLRP3 inflammasome [1]; section 1.2, IL-1β release, 50 μM, positive control EN22 25 μM): 100.007 % positive control
- Average (% positive control) (NLRP3 inflammasome [1]; section 1.2, IL-1β release, 100 μM, positive control EN22 25 μM): 101.159 % positive control
- IL-1β (NLRP3 inflammasome [1]; section 1.2, single replicates, 25 μM): 5.256 ng/mL and 4.576 ng/mL and 4.256 ng/mL
- IL-1β (NLRP3 inflammasome [1]; section 1.2, single replicates, 50 μM): 4.819 ng/mL and 5.538 ng/mL and 4.722 ng/mL
- IL-1β (NLRP3 inflammasome [1]; section 1.2, single replicates, 100 μM): 5.256 ng/mL and 5.328 ng/mL and 4.669 ng/mL
- cytotoxicity at 25 µM (BMDCs; section 1.2, 25 μM, read-out: Average LDH release (% of max.)): 33.1%
- cytotoxicity at 50 µM (BMDCs; section 1.2, 50 μM, read-out: Average LDH release (% of max.)): 32.4%
- cytotoxicity at 100 µM (BMDCs; section 1.2, 100 μM, read-out: Average LDH release (% of max.)): 33%
- cytotoxicity at 25 µM (BMDCs; section 1.2, single replicates, 25 μM, read-out: LDH release (% of max.)): 33.7%
- cytotoxicity at 50 µM (BMDCs; section 1.2, single replicates, 50 μM, read-out: LDH release (% of max.)): 32.1%
- cytotoxicity at 100 µM (BMDCs; section 1.2, single replicates, 100 μM, read-out: LDH release (% of max.)): 34.8%
- Average (% positive control) (BMDCs; section 1.2, 25 μM, positive control EN22 25 μM): 110.581 % positive control
- Average (% positive control) (BMDCs; section 1.2, 50 μM, positive control EN22 25 μM): 108.112 % positive control
- Average (% positive control) (BMDCs; section 1.2, 100 μM, positive control EN22 25 μM): 110.157 % positive control

SMILES: COc1ccccc1NC(=O)NCc1nc(-c2ccc(C(F)(F)F)cc2)no1 [EN21, 1-(2-methoxyphenyl)-3-((3-(4-(trifluoromethyl)phenyl)-1,2,4-oxadiazol-5-yl)methyl)urea]
- dependence of NLRP3 inflammasome activation on potassium efflux from the cell (NLRP3 inflammasome [2]): independently of potassium efflux
- effect of the endocytosis inhibitor cytochalasin D on NLRP3 activation (NLRP3 inflammasome [2]; LPS-primed wild-type BMDCs, FIG. 12): has no effect
- effect of the NLRP3-specific inhibitor MCC950 on inflammasome activation by the compound (NLRP3 inflammasome [2]; wild-type BMDCs, compound 50 μM, FIG. 8): completely suppresses
- characteristics of inflammasome activation in cells isolated from NLRP3 knockout mice (NLRP3): do not occur
- EC50 for induction of IL-1β, times lower than for imiquimod and CL097 (NLRP3 inflammasome [1]; BMDCs, FIG. 4D): 10 times
- Average (% positive control) (NLRP3 inflammasome [1]; IL-1β release, compound 50 μM, positive control nigericin 5 μM): 108.566 % positive control
- Average IL-1β (NLRP3 inflammasome [1]; compound 50 μM, LPS-primed BMDCs): 7.782 ng/mL
- IL-1β (NLRP3 inflammasome [1]; single replicates, compound 50 μM, LPS-primed BMDCs): 8.582 ng/mL and 7.428 ng/mL and 8.023 ng/mL and 6.613 ng/mL and 8.352 ng/mL and 7.696 ng/mL
- Average (% positive control) (BMDCs; compound 50 μM, positive control nigericin 5 μM): 68.766 % positive control
- cytotoxicity at 50 µM (BMDCs; compound 50 μM, LPS-primed BMDCs, read-out: Average LDH release (% of max.)): 50.3%

SMILES: O=C(Nc1cc(C(F)F)ns1)Nc1cc(F)ncc1CO [BRM/BRG1 ATP Inhibitor-1, reference compound]
- characteristics of inflammasome activation in cells isolated from NLRP3 knockout mice (NLRP3): do not occur
- Average IL-1β (NLRP3 inflammasome [1]; section 1.3, 5 μM): 3.664 ng/mL
- Average IL-1β (NLRP3 inflammasome [1]; section 1.3, 50 μM): 5.980 ng/mL
- Average IL-1β (NLRP3 inflammasome [1]; section 1.3, 100 μM): 5.023 ng/mL
- Average (% positive control) (NLRP3 inflammasome [1]; section 1.3, IL-1β release, 5 μM, positive control nigericin 5 μM): 116.295 % positive control
- Average (% positive control) (NLRP3 inflammasome [1]; section 1.3, IL-1β release, 50 μM, positive control nigericin 5 μM): 189.7925 % positive control
- Average (% positive control) (NLRP3 inflammasome [1]; section 1.3, IL-1β release, 100 μM, positive control nigericin 5 μM): 159.415 % positive control
- IL-1β (NLRP3 inflammasome [1]; section 1.3, single replicates, 5 μM): 3.556 ng/mL and 3.899 ng/mL and 3.537 ng/mL
- IL-1β (NLRP3 inflammasome [1]; section 1.3, single replicates, 50 μM): 4.561 ng/mL and 6.642 ng/mL and 6.737 ng/mL
- IL-1β (NLRP3 inflammasome [1]; section 1.3, single replicates, 100 μM): 7.150 ng/mL and 3.831 ng/mL and 4.087 ng/mL
- cytotoxicity at 5 µM (BMDCs; section 1.3, 5 μM, read-out: Average LDH release (% of max.)): 16.6%
- cytotoxicity at 50 µM (BMDCs; section 1.3, 50 μM, read-out: Average LDH release (% of max.)): 35.4%
- cytotoxicity at 100 µM (BMDCs; section 1.3, 100 μM, read-out: Average LDH release (% of max.)): 24.8%
- cytotoxicity at 5 µM (BMDCs; section 1.3, single replicates, 5 μM, read-out: LDH release (% of max.)): 14.1%
- cytotoxicity at 50 µM (BMDCs; section 1.3, single replicates, 50 μM, read-out: LDH release (% of max.)): 38.5%
- cytotoxicity at 100 µM (BMDCs; section 1.3, single replicates, 100 μM, read-out: LDH release (% of max.)): 27%
- Average (% positive control) (BMDCs; section 1.3, 5 μM, positive control nigericin 5 μM): 30.921 % positive control
- Average (% positive control) (BMDCs; section 1.3, 50 μM, positive control nigericin 5 μM): 65.959 % positive control
- Average (% positive control) (BMDCs; section 1.3, 100 μM, positive control nigericin 5 μM): 46.154 % positive control
